Source: article PMC10263119, “WSD-0922, a novel brain-penetrant inhibitor of epidermal growth factor receptor, promotes survival in glioblastoma mouse models” (Neuro-Oncology Advances, 2023)

Experiments:
Format in all cases: biochemical
SRC = SRC (Homo sapiens, UniProt P12931); assay: in vitro kinase inhibition, single concentration ([…]); conditions: read-out: %Inhibition (1 μM WSD-0922)
HCK = HCK (Homo sapiens, UniProt P08631); assay: as above; conditions: read-out: %Inhibition (1 μM WSD-0922)
Chain of HCK (P08631 2-526): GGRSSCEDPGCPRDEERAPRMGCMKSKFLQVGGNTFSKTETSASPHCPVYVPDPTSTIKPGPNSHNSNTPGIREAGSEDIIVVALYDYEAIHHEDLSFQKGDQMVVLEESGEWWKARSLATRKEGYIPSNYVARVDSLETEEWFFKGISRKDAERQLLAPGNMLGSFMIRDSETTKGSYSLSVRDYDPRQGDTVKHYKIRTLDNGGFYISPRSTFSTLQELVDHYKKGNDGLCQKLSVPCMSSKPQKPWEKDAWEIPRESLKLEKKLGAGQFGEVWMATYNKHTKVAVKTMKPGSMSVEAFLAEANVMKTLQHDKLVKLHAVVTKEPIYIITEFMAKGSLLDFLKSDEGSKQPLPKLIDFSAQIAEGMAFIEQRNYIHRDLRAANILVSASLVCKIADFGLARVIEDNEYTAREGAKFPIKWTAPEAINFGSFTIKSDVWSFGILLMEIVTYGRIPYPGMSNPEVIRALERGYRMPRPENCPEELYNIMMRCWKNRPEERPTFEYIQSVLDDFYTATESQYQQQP

LCK = LCK (Homo sapiens, UniProt P06239); assay: as above; conditions: read-out: %Inhibition (1 μM WSD-0922)
Chain of LCK (P06239 2-509): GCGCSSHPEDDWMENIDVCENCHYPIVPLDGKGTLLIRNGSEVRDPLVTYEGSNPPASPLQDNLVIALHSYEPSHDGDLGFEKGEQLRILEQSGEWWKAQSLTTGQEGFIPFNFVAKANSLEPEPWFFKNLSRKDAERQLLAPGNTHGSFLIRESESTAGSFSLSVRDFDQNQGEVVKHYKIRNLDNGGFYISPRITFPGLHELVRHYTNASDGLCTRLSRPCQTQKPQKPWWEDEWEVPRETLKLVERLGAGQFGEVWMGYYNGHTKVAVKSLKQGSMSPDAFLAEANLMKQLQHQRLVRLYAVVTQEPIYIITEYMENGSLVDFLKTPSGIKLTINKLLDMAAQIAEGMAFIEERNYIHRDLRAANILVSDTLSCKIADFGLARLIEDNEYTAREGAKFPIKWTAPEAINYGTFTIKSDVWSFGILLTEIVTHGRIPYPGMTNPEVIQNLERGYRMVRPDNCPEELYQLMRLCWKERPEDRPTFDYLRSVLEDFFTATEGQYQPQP

HER4 = biological target: T1, HER4 (Homo sapiens, UniProt Q15303); assay: as above; conditions: read-out: %Inhibition (1 μM WSD-0922)
T1 construct: gene ERBB4
T1 sequence (Q15303 26-1308): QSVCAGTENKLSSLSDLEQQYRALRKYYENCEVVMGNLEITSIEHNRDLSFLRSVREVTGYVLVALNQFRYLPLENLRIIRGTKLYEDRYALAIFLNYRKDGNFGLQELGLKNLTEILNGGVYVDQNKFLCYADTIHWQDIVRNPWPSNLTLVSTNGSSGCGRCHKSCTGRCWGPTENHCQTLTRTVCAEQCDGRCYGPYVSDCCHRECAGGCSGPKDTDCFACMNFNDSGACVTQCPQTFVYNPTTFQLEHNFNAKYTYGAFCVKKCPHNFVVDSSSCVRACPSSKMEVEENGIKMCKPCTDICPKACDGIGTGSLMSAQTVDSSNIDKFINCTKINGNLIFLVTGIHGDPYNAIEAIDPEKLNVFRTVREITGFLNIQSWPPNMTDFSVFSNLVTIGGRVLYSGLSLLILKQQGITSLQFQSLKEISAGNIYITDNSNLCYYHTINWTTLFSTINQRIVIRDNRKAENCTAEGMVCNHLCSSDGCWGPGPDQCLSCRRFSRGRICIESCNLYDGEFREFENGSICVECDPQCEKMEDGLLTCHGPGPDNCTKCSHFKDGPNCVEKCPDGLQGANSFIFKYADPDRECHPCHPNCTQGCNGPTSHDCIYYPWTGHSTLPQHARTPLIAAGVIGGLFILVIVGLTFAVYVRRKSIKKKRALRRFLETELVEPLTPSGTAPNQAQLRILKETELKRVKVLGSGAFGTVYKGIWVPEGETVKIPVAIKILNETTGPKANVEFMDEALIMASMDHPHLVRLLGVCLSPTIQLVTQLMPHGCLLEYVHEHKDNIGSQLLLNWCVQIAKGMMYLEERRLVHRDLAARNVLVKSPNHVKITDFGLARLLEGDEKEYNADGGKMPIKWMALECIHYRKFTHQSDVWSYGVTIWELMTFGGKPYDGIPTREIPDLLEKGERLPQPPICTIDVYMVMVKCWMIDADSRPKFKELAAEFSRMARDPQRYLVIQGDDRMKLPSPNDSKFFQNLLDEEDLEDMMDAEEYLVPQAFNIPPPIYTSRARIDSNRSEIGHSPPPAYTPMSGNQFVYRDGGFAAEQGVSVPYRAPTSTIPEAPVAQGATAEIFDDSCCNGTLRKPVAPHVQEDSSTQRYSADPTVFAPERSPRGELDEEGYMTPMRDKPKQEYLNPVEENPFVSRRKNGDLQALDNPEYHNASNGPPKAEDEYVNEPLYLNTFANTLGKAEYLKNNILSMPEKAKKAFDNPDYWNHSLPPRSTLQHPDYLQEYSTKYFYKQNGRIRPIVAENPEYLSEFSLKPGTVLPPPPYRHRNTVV

LYNa = biological target: T2, LYNa (Homo sapiens, UniProt P07948); assay: as above; conditions: read-out: %Inhibition (1 μM WSD-0922)
T2 construct: gene LYN
T2 sequence (P07948 2-512): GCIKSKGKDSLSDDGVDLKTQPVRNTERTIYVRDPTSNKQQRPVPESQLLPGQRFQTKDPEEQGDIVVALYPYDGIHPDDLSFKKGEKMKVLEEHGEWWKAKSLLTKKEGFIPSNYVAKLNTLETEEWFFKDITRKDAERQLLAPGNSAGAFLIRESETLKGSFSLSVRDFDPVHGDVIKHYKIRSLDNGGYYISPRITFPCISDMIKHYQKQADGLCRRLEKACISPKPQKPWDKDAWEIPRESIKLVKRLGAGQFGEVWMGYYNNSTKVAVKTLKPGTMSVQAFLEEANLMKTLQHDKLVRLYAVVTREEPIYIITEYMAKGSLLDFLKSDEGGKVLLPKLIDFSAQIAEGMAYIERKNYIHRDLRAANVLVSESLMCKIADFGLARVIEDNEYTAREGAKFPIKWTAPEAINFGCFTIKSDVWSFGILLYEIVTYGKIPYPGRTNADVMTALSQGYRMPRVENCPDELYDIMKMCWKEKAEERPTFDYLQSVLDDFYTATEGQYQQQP

EPHA1 = biological target: T3, EPHA1 (Homo sapiens, UniProt P21709); assay: as above; conditions: read-out: %Inhibition (1 μM WSD-0922)
T3 sequence (P21709 26-976): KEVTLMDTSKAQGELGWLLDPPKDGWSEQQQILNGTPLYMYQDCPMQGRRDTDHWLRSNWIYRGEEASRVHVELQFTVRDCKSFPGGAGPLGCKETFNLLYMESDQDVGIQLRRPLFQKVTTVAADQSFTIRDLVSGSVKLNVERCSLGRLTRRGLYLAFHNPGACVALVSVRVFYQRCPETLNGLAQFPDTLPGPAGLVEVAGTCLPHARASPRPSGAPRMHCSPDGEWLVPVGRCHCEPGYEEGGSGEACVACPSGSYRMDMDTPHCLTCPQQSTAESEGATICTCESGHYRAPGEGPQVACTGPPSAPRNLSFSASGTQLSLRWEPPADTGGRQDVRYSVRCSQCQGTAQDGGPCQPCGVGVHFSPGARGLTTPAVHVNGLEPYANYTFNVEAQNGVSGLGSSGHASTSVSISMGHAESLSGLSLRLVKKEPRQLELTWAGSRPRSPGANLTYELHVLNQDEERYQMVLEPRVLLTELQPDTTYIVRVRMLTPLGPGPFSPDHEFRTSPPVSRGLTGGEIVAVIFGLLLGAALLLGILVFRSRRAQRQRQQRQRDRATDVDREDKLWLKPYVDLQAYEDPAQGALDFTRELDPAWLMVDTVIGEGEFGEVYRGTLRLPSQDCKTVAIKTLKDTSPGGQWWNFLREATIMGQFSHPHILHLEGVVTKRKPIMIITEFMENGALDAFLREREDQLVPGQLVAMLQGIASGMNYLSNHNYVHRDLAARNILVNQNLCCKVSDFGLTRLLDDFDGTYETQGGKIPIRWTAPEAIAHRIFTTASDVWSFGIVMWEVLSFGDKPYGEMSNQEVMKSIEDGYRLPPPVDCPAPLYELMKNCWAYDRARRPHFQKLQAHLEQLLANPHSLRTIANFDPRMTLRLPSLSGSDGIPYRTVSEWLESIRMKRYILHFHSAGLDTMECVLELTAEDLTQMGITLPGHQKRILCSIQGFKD

EGFR = EGFR (Homo sapiens, UniProt P00533); assay: cell-free in vitro kinase inhibition assay; kinetic data
Chain of EGFR (P00533 25-1210): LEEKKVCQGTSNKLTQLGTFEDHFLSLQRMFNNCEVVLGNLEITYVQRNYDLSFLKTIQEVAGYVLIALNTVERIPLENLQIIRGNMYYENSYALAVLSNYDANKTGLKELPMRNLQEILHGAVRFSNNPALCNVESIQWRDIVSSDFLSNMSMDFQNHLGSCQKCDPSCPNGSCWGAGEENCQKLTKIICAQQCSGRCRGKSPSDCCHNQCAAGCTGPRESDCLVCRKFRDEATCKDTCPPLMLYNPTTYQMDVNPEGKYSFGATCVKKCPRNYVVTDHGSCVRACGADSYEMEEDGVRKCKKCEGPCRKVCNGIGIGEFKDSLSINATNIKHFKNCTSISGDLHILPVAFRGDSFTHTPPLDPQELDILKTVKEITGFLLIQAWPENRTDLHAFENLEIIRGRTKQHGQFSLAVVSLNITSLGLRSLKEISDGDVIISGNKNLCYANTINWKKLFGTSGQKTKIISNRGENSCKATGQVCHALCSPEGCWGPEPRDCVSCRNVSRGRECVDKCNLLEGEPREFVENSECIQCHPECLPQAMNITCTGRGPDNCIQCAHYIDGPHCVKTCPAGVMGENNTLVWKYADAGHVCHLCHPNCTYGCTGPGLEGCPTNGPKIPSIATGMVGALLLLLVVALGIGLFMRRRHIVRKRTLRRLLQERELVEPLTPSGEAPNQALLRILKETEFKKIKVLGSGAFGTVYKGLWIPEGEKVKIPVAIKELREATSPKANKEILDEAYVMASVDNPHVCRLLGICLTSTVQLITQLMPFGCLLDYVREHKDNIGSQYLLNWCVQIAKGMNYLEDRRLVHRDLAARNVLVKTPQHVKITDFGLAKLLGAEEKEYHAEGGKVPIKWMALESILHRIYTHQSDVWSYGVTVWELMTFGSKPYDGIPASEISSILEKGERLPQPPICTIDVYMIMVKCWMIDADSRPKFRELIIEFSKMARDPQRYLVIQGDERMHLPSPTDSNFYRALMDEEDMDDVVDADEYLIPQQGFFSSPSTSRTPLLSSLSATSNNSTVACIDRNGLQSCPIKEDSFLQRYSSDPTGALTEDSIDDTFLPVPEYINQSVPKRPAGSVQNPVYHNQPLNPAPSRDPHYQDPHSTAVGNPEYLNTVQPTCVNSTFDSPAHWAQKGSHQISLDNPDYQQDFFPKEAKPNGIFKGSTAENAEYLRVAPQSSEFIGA

Chain of SRC (P12931 2-536): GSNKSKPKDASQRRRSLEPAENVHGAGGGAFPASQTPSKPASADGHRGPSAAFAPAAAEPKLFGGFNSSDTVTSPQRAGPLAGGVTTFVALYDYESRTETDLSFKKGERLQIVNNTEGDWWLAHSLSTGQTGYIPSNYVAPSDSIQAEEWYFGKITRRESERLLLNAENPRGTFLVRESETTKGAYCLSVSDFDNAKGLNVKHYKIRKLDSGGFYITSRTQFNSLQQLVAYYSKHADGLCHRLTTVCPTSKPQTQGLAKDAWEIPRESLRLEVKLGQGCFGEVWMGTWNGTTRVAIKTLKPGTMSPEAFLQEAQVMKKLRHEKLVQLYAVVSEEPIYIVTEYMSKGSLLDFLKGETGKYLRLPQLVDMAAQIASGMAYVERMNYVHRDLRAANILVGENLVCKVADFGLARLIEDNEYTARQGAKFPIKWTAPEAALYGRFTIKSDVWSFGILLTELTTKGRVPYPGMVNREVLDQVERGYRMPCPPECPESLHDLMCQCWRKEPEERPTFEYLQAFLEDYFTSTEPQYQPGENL

- inhibition at 1 µM (SRC): 39.5%
- inhibition at 1 µM (HCK): 49.7%
- inhibition at 1 µM (LCK): 46.2%
- inhibition at 1 µM (HER4): 69.8%
- inhibition at 1 µM (LYNa): 70.9%
- inhibition at 1 µM (EPHA1): 55.4%
- IC50 (EGFR): 0.056 nM
SMILES: C#Cc1cccc(Nc2ncnc3cc(OC)c(O[C@@H]4CCN(C)CC4(F)F)cc23)c1F [WSD-0922]
